The source of these data is ChEMBL document CHEMBL1201862, “PubChem BioAssay data set” (2004).

Some test systems named below: UO-31; M14; HOP-92; DLD-1; HOP-62; COLO 205; OVCAR-3; UACC-62; SK-MEL-5; SF-268; EKVX; HT-29; CCRF-CEM; SNB-75; ACHN; HCC 2998; A549; RXF 393; NCI/ADR-RES; HCT-116.
Assay in all cases: NCI anticancer screen, dose series, 48 h

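Growth conditions: 96-well plates. Treatment: test compound, 48 hours, 5 concentrations. Analysis: linear interpolation between bracketing concentrations; unreached endpoints set to highest concentration. GI50 = concentration required for 50% inhibition of growth.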 Activity calls are given as the source filed them. Rule as the data show it: active = GI50 up to about 1.1 µM and inactive = higher. Bounds are passed on as bounds.

For `CC1=NC(C(=O)O)Cc2c1[nH]c1ccccc21` (stereo unspecified), the GI50 was > 100 µM (inactive) in the test on UO-31; > 100 µM (inactive) with M14; 14.6 µM (inactive) in the test on HOP-92; > 100 µM (inactive) in the test with DLD-1; < 0.01 µM (active) in the test on HOP-62; > 100 µM (inactive) with COLO 205. Also, the GI50 in the test on OVCAR-3, in the test with UACC-62, in the test on SK-MEL-5, in the test with SF-268, in the test with EKVX and with HT-29 was > 100 µM (inactive) throughout. In addition, the GI50 in the test on CCRF-CEM, in the test with SNB-75 and in the test with ACHN was > 100 µM (inactive) throughout.
Take `COc1ccc([C@H]2C=[N+]([O-])O[C@H](OC3CCCC3)[C@@H]2OC(C)=O)cc1OC`: the GI50 in the test with UO-31 was 18.7 µM (inactive); with HCC 2998 it was 13.2 µM (inactive); with M14, 21.4 µM (inactive); in the test on HOP-92 it was 14.3 µM (inactive); in the test with HOP-62 it was 72.1 µM (inactive); in the test with COLO 205 it was 15.9 µM (inactive). The GI50 with OVCAR-3 was 26 µM (inactive); with UACC-62, 22.8 µM (inactive); in the test on SK-MEL-5, 13.1 µM (inactive); with SF-268 it was 33.7 µM (inactive); with A549, 29.4 µM (inactive); with EKVX, 22.3 µM (inactive). Further, the GI50 in the test with HT-29 is 20.7 µM (inactive); with CCRF-CEM, 0.098 µM (active); in the test on SNB-75, 28.4 µM (inactive); in the test with RXF 393 it was 13.3 µM (inactive); with ACHN it was 22.2 µM (inactive); with NCI/ADR-RES it was 31.8 µM (inactive).
For the compound `CCOC(=O)c1csc(NC(=O)CCCC#N)n1`, the GI50 with UO-31, in the test with HCC 2998, in the test with M14, in the test with HOP-92, with HOP-62 and in the test on COLO 205 was > 100 µM (inactive) in each case. For the same compound, the GI50 with OVCAR-3, with UACC-62, with SK-MEL-5, with A549, with HT-29 and in the test on CCRF-CEM was > 100 µM (inactive) each time. Further, the GI50 in the test on SNB-75, in the test with RXF 393, in the test with ACHN and in the test on NCI/ADR-RES was > 100 µM (inactive) throughout.
For `CO/C(=N/N1CC1C(F)(F)F)c1ccncc1` (stereo unspecified), the GI50 in the test with UO-31 was 46.8 µM (inactive); with M14, > 100 µM (inactive); with HOP-92, > 100 µM (inactive); in the test on HOP-62, > 100 µM (inactive); with COLO 205, > 100 µM (inactive); with OVCAR-3, > 100 µM (inactive). Besides, the GI50 in the test with UACC-62 is > 100 µM (inactive); in the test on SK-MEL-5 it was > 100 µM (inactive); in the test on HT-29 it was > 100 µM (inactive); with CCRF-CEM, 88.1 µM (inactive); in the test on SNB-75, > 100 µM (inactive); in the test on RXF 393 it was 45.1 µM (inactive). The GI50 in the test with HCT-116 and with NCI/ADR-RES was > 100 µM (inactive) throughout.
With `N#CC(=N)c1ncn(-c2ccccc2N)c1N`, the GI50 with UO-31, with HCC 2998, with M14, with HOP-62, in the test with COLO 205 and with OVCAR-3 was > 100 µM (inactive) in each case. Also, the GI50 with UACC-62, with SK-MEL-5, in the test on SF-268, in the test with A549, in the test with EKVX and with HT-29 was > 100 µM (inactive) each time. The GI50 in the test on CCRF-CEM, with SNB-75, with HCT-116, in the test on ACHN and in the test on NCI/ADR-RES was > 100 µM (inactive) in each case.
On to `Cc1ccc([N+](=O)[O-])cc1/N=N/C(=O)NNc1cc([N+](=O)[O-])ccc1C`, for which the GI50 with UO-31 is 23.6 µM (inactive); in the test with HCC 2998, 23.3 µM (inactive); with M14 it was 18.9 µM (inactive); in the test with HOP-92, 70.8 µM (inactive); in the test with HOP-62, 26.4 µM (inactive); with COLO 205 it was 33.1 µM (inactive). Moreover, the GI50 in the test on OVCAR-3 was 18.1 µM (inactive); with UACC-62, 14.7 µM (inactive); with SK-MEL-5 it was 17.8 µM (inactive); in the test with HT-29, 21.9 µM (inactive); in the test on CCRF-CEM, 10 µM (inactive); in the test on SNB-75, 21.3 µM (inactive). Also, the GI50 with RXF 393 was 18.1 µM (inactive); in the test with HCT-116, 17.7 µM (inactive); with NCI/ADR-RES it was 27.9 µM (inactive).
Turning to `O=C(NNC(=S)NCc1ccccc1)C12CC3CC(CC(C3)C1)C2`, the GI50 in the test with UO-31 is 50.1 µM (inactive); with HCC 2998, 69.8 µM (inactive); in the test on M14 it was 74.3 µM (inactive); in the test with HOP-62, 75.2 µM (inactive); in the test on COLO 205, 20.4 µM (inactive); with OVCAR-3, 54.6 µM (inactive). Besides, the GI50 with UACC-62 was 66.7 µM (inactive); with SF-268, 58.9 µM (inactive); in the test with HT-29, 45.3 µM (inactive); in the test on CCRF-CEM, 24.3 µM (inactive); in the test on SNB-75, 49.4 µM (inactive); in the test with RXF 393, 89.1 µM (inactive). Further, the GI50 in the test with HCT-116 was 34.5 µM (inactive); in the test on ACHN it was 54.7 µM (inactive); with NCI/ADR-RES it was 89.1 µM (inactive).
For the compound `COc1cc2c(cc1OC)C(Cl)C(c1cc(OC)c(OC)c(OC)c1)=C2Cl` (stereo unspecified), the GI50 with UO-31 is 11 µM (inactive); in the test on M14 it was 17.2 µM (inactive); with HOP-92, 4.73 µM (inactive); with DLD-1, 19.4 µM (inactive); in the test with COLO 205, 17.5 µM (inactive); in the test on OVCAR-3 it was 17.1 µM (inactive). Moreover, the GI50 was 13.6 µM (inactive) in the test with UACC-62; 15.6 µM (inactive) in the test on SK-MEL-5; 16.6 µM (inactive) with SF-268; 19.1 µM (inactive) in the test on EKVX; 14.4 µM (inactive) in the test on HT-29; 4.67 µM (inactive) with CCRF-CEM. For the same compound, the GI50 in the test with SNB-75 is 2.69 µM (inactive); in the test on ACHN, 13.6 µM (inactive).
`C1CCC2(CC1)O[C@@H]1[C@@H](O2)[C@@H](O[C@H]2O[C@@H]3COC4(CCCCC4)O[C@H]3[C@@H]3OC4(CCCCC4)O[C@@H]23)O[C@@H]2COC3(CCCCC3)O[C@@H]12`: the GI50 in the test with UO-31, with M14, in the test on HOP-92, in the test on HOP-62, in the test on COLO 205 and with OVCAR-3 was > 100 µM (inactive) each time. Besides, the GI50 in the test on UACC-62, with SK-MEL-5, in the test on SF-268, in the test with A549, with EKVX and in the test with HT-29 was > 100 µM (inactive) in each case. The GI50 with CCRF-CEM, in the test with SNB-75, in the test on RXF 393, with HCT-116, in the test with ACHN and in the test on NCI/ADR-RES was > 100 µM (inactive) in each case.
On to `CSC1NC(c2ccccc2)=C(C#N)C(=O)N1C1OCC(OC(C)=O)C(OC(C)=O)C1OC(C)=O` (stereo unspecified), for which the GI50 in the test with UO-31 was > 100 µM (inactive); in the test with HCC 2998 it was > 100 µM (inactive); in the test on M14, > 100 µM (inactive); with HOP-92, 86.3 µM (inactive); in the test with HOP-62, > 100 µM (inactive); in the test on COLO 205, > 100 µM (inactive). Besides, the GI50 with OVCAR-3, with UACC-62, in the test with SK-MEL-5, in the test on SF-268, in the test on A549 and with EKVX was > 100 µM (inactive) each time. In addition, the GI50 in the test on HT-29 is > 100 µM (inactive); in the test with SNB-75, > 100 µM (inactive); in the test on RXF 393, > 100 µM (inactive); in the test with HCT-116 it was 47.9 µM (inactive); with ACHN, > 100 µM (inactive); in the test on NCI/ADR-RES, > 100 µM (inactive).
As to `COc1ccc2c(C)cc(N/N=C/c3sccc3C)nc2c1`, the GI50 in the test on UO-31 is 17.1 µM (inactive); with HCC 2998, 12.6 µM (inactive); with M14, 11.8 µM (inactive); in the test on HOP-92 it was 16.1 µM (inactive); in the test on HOP-62, 15.2 µM (inactive); in the test with COLO 205, 3.91 µM (inactive). The GI50 was 2.99 µM (inactive) in the test with OVCAR-3; 15.9 µM (inactive) in the test with UACC-62; 6.24 µM (inactive) with SK-MEL-5; 17.4 µM (inactive) in the test on SF-268; 13.3 µM (inactive) in the test with A549; > 10 µM (inactive) with EKVX. For the same compound, the GI50 in the test with HT-29 was 2.81 µM (inactive); with CCRF-CEM, 39.8 µM (inactive); in the test with SNB-75, 12.1 µM (inactive); in the test with RXF 393 it was 14.9 µM (inactive); in the test on HCT-116 it was 4.08 µM (inactive); in the test on ACHN, 21.7 µM (inactive). Moreover, the GI50 with NCI/ADR-RES is 10 µM (inactive).
Take `CCOC(=O)c1nc2cc(C(F)(F)F)ccc2nc1Oc1ccc(F)cc1`: the GI50 is 61.5 µM (inactive) in the test with UO-31; > 100 µM (inactive) in the test on HCC 2998; > 100 µM (inactive) with M14; 87.3 µM (inactive) with HOP-92; > 100 µM (inactive) with COLO 205; > 100 µM (inactive) in the test with OVCAR-3. Besides, the GI50 in the test on UACC-62, in the test with SK-MEL-5, in the test on SF-268, in the test with A549, in the test with EKVX and in the test with CCRF-CEM was > 100 µM (inactive) in each case. Moreover, the GI50 in the test with SNB-75 is > 100 µM (inactive); in the test with RXF 393 it was 54 µM (inactive); in the test with HCT-116 it was 4.49 µM (inactive); in the test with ACHN, > 100 µM (inactive); in the test with NCI/ADR-RES, > 100 µM (inactive).
